In ChEMBL document CHEMBL1201862, “PubChem BioAssay data set” (2004):
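The compound was tested at five concentrations on cells cultured in 96-well plates, with a 48-hour exposure period. Here, GI50 denotes the concentration required for 50% inhibition of growth.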 Activity calls are given as the source filed them. Rule as the data show it: active = GI50 up to about 1.1 µM and inactive = higher.

How the values were obtained:
Assay in all cases: inhibition of tumour cell growth, NCI panel, 48 h
786-0 = tested on: 786-0
A498 = tested on: A498
A549 = tested on: A549
ACHN = tested on: ACHN
BT-549 = tested on: BT-549
CAKI-1 = tested on: CAKI-1
COLO 205 = tested on: COLO 205
DU-145 = tested on: DU-145
EKVX = tested on: EKVX
HCT-116 = tested on: HCT-116
HCT-15 = tested on: HCT-15
HOP-62 = tested on: HOP-62
HOP-92 = tested on: HOP-92
HT-29 = tested on: HT-29
Hs-578T = tested on: Hs-578T
IGROV-1 = tested on: IGROV-1
KM12 = tested on: KM12
LOX IMVI = tested on: LOX IMVI
M14 = tested on: M14
MCF7 = tested on: MCF7
MDA-MB-231 = tested on: MDA-MB-231
MDA-MB-435 = tested on: MDA-MB-435
MDA-N = tested on: MDA-N
MOLT-4 = tested on: MOLT-4
Malme-3M = tested on: Malme-3M
NCI-H226 = tested on: NCI-H226
NCI-H23 = tested on: NCI-H23
NCI-H522 = tested on: NCI-H522
NCI/ADR-RES = tested on: NCI/ADR-RES
OVCAR-3 = tested on: OVCAR-3
OVCAR-4 = tested on: OVCAR-4
OVCAR-5 = tested on: OVCAR-5
OVCAR-8 = tested on: OVCAR-8
PC-3 = tested on: PC-3
RPMI-8226 = tested on: RPMI-8226
RXF 393 = tested on: RXF 393
SF-268 = tested on: SF-268
SF-295 = tested on: SF-295
SF-539 = tested on: SF-539
SK-MEL-28 = tested on: SK-MEL-28
SK-MEL-2 = tested on: SK-MEL-2
SK-MEL-5 = tested on: SK-MEL-5
SK-OV-3 = tested on: SK-OV-3
SN12C = tested on: SN12C
SNB-19 = tested on: SNB-19
SNB-75 = tested on: SNB-75
SR = tested on: SR
SW-620 = tested on: SW-620
T47D = tested on: T47D
TK-10 = tested on: TK-10
U-251 = tested on: U-251
UACC-257 = tested on: UACC-257
UACC-62 = tested on: UACC-62
UO-31 = tested on: UO-31

## Clc1ccc(CN2CCCN(Cc3ccc(Cl)cc3)C2c2cc3ccccc3c3ccccc23)cc1
786-0
  GI50: 75 µM (inactive)
A498
  GI50: 19 µM (inactive)
A549
  GI50: > 100 µM (inactive)
ACHN
  GI50: > 100 µM (inactive)
BT-549
  GI50: 38.3 µM (inactive)
CAKI-1
  GI50: 49.8 µM (inactive)
COLO 205
  GI50: 19.7 µM (inactive)
DU-145
  GI50: 44.2 µM (inactive)
EKVX
  GI50: 39.1 µM (inactive)
HCT-116
  GI50: 44.8 µM (inactive)
HCT-15
  GI50: 62.8 µM
HOP-62
  GI50: > 100 µM (inactive)
HOP-92
  GI50: 74 µM (inactive)
HT-29
  GI50: 36.8 µM (inactive)
Hs-578T
  GI50: 24.4 µM (inactive)
IGROV-1
  GI50: > 100 µM (inactive)
KM12
  GI50: 60.3 µM (inactive)
LOX IMVI
  GI50: 36.5 µM (inactive)
M14
  GI50: 18.7 µM (inactive)
MCF7
  GI50: 37.2 µM (inactive)
MDA-MB-231
  GI50: 25.4 µM (inactive)
MDA-MB-435
  GI50: 30.2 µM (inactive)
MDA-N
  GI50: 37.2 µM (inactive)
MOLT-4
  GI50: 5.85 µM (inactive)
Malme-3M
  GI50: 18.4 µM (inactive)
NCI-H226
  GI50: > 100 µM (inactive)
NCI-H23
  GI50: 46.3 µM (inactive)
NCI-H522
  GI50: 18.9 µM (inactive)
NCI/ADR-RES
  GI50: 65.8 µM (inactive)
OVCAR-3
  GI50: 57.9 µM (inactive)
OVCAR-4
  GI50: 55.6 µM (inactive)
OVCAR-5
  GI50: 36.9 µM (inactive)
OVCAR-8
  GI50: > 100 µM (inactive)
PC-3
  GI50: 24.3 µM (inactive)
RPMI-8226
  GI50: 45.1 µM (inactive)
RXF 393
  GI50: 24.8 µM (inactive)
SF-268
  GI50: 44.3 µM (inactive)
SF-295
  GI50: 52.2 µM (inactive)
SF-539
  GI50: 62.2 µM (inactive)
SK-MEL-28
  GI50: 22.8 µM (inactive)
SK-MEL-2
  GI50: 25.5 µM (inactive)
SK-MEL-5
  GI50: 17.8 µM (inactive)
SK-OV-3
  GI50: > 100 µM (inactive)
SN12C
  GI50: 67.3 µM (inactive)
SNB-19
  GI50: > 100 µM (inactive)
SNB-75
  GI50: 22.4 µM (inactive)
SR
  GI50: 3.21 µM (inactive)
SW-620
  GI50: 51.8 µM (inactive)
T47D
  GI50: 32.4 µM (inactive)
TK-10
  GI50: 78.5 µM (inactive)
U-251
  GI50: 33.3 µM (inactive)
UACC-257
  GI50: 22.8 µM (inactive)
UACC-62
  GI50: 18.7 µM (inactive)
UO-31
  GI50: 88.1 µM (inactive)
